Measured values reported in ChEMBL document CHEMBL6083273, “Targeting Periplakin of Novel Benzenesulfonamides as Highly Selective Agonists for the Treatment of Vitiligo” (2024).
Activity calls are given as the source filed them. The rule behind the calls is not given here.

What was measured:
Danio rerio [1] = species on record: Danio rerio; assay: Effect on tryptophan metabolism in zebrafish embryo assessed as ILA metabolite level at 10 uM by LC/MS analysis; type: functional
Danio rerio [2] = species on record: Danio rerio; assay: Effect on tryptophan metabolism in zebrafish embryo assessed as AA metabolite level at 10 uM by LC/MS analysis; type: functional
Danio rerio [3] = species on record: Danio rerio; assay: Effect on tryptophan metabolism in zebrafish embryo assessed as skatole metabolite level at 10 uM by LC/MS analysis; type: functional
Danio rerio [4] = species on record: Danio rerio; assay: Effect on tryptophan metabolism in zebrafish embryo assessed as indole metabolite level at 10 uM by LC/MS analysis; type: functional
Danio rerio [5] = species on record: Danio rerio; assay: Effect on tryptophan metabolism in zebrafish embryo assessed as 5-HTP metabolite level at 10 uM by LC/MS analysis; type: functional
Danio rerio [6] = species on record: Danio rerio; assay: Effect on tryptophan metabolism in zebrafish embryo assessed as IA metabolite level at 10 uM by LC/MS analysis; type: functional
Danio rerio [7] = species on record: Danio rerio; assay: Effect on tryptophan metabolism in zebrafish embryo assessed as ICA metabolite level at 10 uM by LC/MS analysis; type: functional
Danio rerio [8] = species on record: Danio rerio; assay: Effect on tryptophan metabolism in zebrafish embryo assessed as 3-HAA metabolite level at 10 uM by LC/MS analysis; type: functional
Danio rerio [9] = species on record: Danio rerio; assay: Effect on tryptophan metabolism in zebrafish embryo assessed as 5-HIAA metabolite level at 10 uM by LC/MS analysis; type: functional
Danio rerio [10] = species on record: Danio rerio; assay: Effect on tryptophan metabolism in zebrafish embryo assessed as IAA metabolite level at 10 uM by LC/MS analysis; type: functional
Danio rerio [11] = species on record: Danio rerio; assay: Induction of melanogenesis in zebrafish treated for 24 hrs by absorbance based assay (reference value: 98.2 to 100.3 %); type: functional
Danio rerio [12] = species on record: Danio rerio; assay: Effect on tryptophan metabolism in zebrafish embryo assessed as KYNA metabolite level at 10 uM by LC/MS analysis; type: functional
Danio rerio [13] = species on record: Danio rerio; assay: Effect on tryptophan metabolism in zebrafish embryo assessed as IAN metabolite level at 10 uM by LC/MS analysis; type: functional
Danio rerio [14] = species on record: Danio rerio; assay: Effect on tryptophan metabolism in zebrafish embryo assessed as LE metabolite level at 10 uM by LC/MS analysis; type: functional
Danio rerio [15] = species on record: Danio rerio; assay: Effect on tryptophan metabolism in zebrafish embryo assessed as Trp metabolite level at 10 uM by LC/MS analysis; type: functional
Danio rerio [16] = species on record: Danio rerio; assay: Effect on tryptophan metabolism in zebrafish embryo assessed as 3-HK metabolite level at 10 uM by LC/MS analysis; type: functional
Danio rerio [17] = species on record: Danio rerio; assay: Effect on tryptophan metabolism in zebrafish embryo assessed as Xa metabolite level at 10 uM by LC/MS analysis; type: functional
Danio rerio [18] = species on record: Danio rerio; assay: Effect on tryptophan metabolism in zebrafish embryo assessed as NA metabolite level at 10 uM by LC/MS analysis; type: functional
Danio rerio [19] = species on record: Danio rerio; assay: Effect on tryptophan metabolism in zebrafish embryo assessed as NAS metabolite level at 10 uM by LC/MS analysis; type: functional
Danio rerio [20] = species on record: Danio rerio; assay: Effect on tryptophan metabolism in zebrafish embryo assessed as IPA metabolite level at 10 uM by LC/MS analysis; type: functional
Danio rerio [21] = species on record: Danio rerio; assay: Induction of melanogenesis in zebrafish treated for 24 hrs by absorbance based assay; type: functional, organism-based
Danio rerio [22] = species on record: Danio rerio; assay: Induction of melanogenesis in zebrafish at 40 uM treated for 24 hrs by absorbance based assay relative to control; type: functional
Danio rerio [23] = species on record: Danio rerio; assay: Induction of melanogenesis in zebrafish at 0.1 nM treated for 24 hrs by absorbance based assay; type: functional, organism-based

With `Cc1cc(-c2ccc([C@H](C)Nc3nccc(NS(=O)(=O)c4ccc(F)cc4)n3)cc2)ccc1F` the Activity (Danio rerio [1]) was 108.22 nmol/kg, the Activity (Danio rerio [2]) was 13.62 nmol/kg and the Activity (Danio rerio [3]) was 506.87 nmol/kg. It also gave an Activity (Danio rerio [4]) of 754.01 nmol/kg, an Activity (Danio rerio [5]) of 42.55 nmol/kg and an Activity (Danio rerio [6]) of 21.42 nmol/kg. For the same molecule, the Activity (Danio rerio [7]) was 25.11 nmol/kg, the Activity (Danio rerio [8]) was 1.15 nmol/kg and the Activity (Danio rerio [9]) was 105.04 nmol/kg. The Activity (Danio rerio [10]) was 0.85 nmol/kg, the Activity (Danio rerio [11]) was 135.12% and the Activity (Danio rerio [12]) was 1.12 nmol/kg. For the same molecule, the Activity (Danio rerio [13]) was 16.03 nmol/kg, the Activity (Danio rerio [14]) was 53.82 nmol/kg and the Activity (Danio rerio [15]) was 234150.9 nmol/kg. It also gave an Activity (Danio rerio [16]) of 109.36 nmol/kg, an Activity (Danio rerio [17]) of 468.35 nmol/kg and an Activity (Danio rerio [18]) of 2175.78 nmol/kg. For the same molecule, the Activity (Danio rerio [19]) was 0.09 nmol/kg and the Activity (Danio rerio [20]) was 22.24 nmol/kg.
`C[C@H](Nc1nccc(NS(=O)(=O)c2cccc([N+](=O)[O-])c2)n1)c1ccc(-c2ccc(F)cc2)cc1` showed an Activity (Danio rerio [11]) of 146.53%.
With `COc1ccc(CNc2nccc(NS(=O)(=O)c3cccc([N+](=O)[O-])c3)n2)cc1` the Activity (Danio rerio [11]) was 132.54%.
With `Cc1cc(-c2ccc([C@H](C)Nc3nccc(NS(=O)(=O)c4cc(C(F)(F)F)cc(C(F)(F)F)c4)n3)cc2)ccc1F` the Activity (Danio rerio [11]) was 114.22%.
For `Cc1cc(-c2ccc([C@H](C)Nc3nccc(NS(=O)(=O)c4ccccc4)n3)cc2)ccc1F`, the Activity (Danio rerio [21]) was “Dose-dependent-effect” and the Emax at 40 µM (Danio rerio [22]) was 139%.
For `C=C1/C(=C\C=C2/CCC[C@]3(C)[C@@H]([C@H](C)/C=C/[C@@H](O)C4CC4)CC[C@@H]23)C[C@@H](O)C[C@@H]1O`, the Activity (Danio rerio [23]) was “Active”.
In the case of `C[C@H](Nc1nccc(NS(=O)(=O)c2cccc([N+](=O)[O-])c2)n1)c1ccc(-c2cccs2)cc1`, the Activity (Danio rerio [11]) is reported as 94.688%.
Molecule `Cc1cc(-c2ccc([C@H](C)Nc3nccc(NS(=O)(=O)c4ccc5ccccc5c4)n3)cc2)ccc1F` has an Activity (Danio rerio [11]) of 89.349%.
In the case of `Cc1cc(-c2ccc([C@H](C)Nc3nccc(NS(=O)(=O)c4cc(F)cc(F)c4)n3)cc2)ccc1F`, the Activity (Danio rerio [11]) is reported as 81.815%.
Work on `C[C@H](Nc1nccc(NS(=O)(=O)c2cccc([N+](=O)[O-])c2)n1)c1ccc([N+](=O)[O-])cc1` yielded an Activity (Danio rerio [11]) of 129.75%.
Molecule `O=[N+]([O-])c1cccc(S(=O)(=O)Nc2ccnc(NCc3ccccc3)n2)c1` has an Activity (Danio rerio [11]) of 107.18%.
With `Cc1cccc(S(=O)(=O)Nc2ccnc(N[C@@H](C)c3ccc(-c4ccc(F)c(C)c4)cc3)n2)c1` the Activity (Danio rerio [11]) was 46.585%.
For `C[C@H](Nc1nccc(NS(=O)(=O)c2cccc([N+](=O)[O-])c2)n1)c1ccc(-c2ccc3ccccc3c2)cc1`, the Activity (Danio rerio [11]) was 77.723%.
